The record followed here is patent US20050043239A1, “Methods of inhibiting immune responses stimulated by an endogenous factor” (priority 2003, published 2005).

“Also recorded” adds a separate entry of the source.

The subject of one series is Listeria monocytogenes. Put plainly: Clearance of systemic Listeria monocytogenes infection. It is filed as in vivo. The following applies: for Log colony count/gm spleen tissue in dexamethasone group (2 mg/kg): 72 hours post-infection, Lewis rats. As for the experimental part:
Two separate bacterial clearance studies were conducted. […] Colony counts (CFU) per gram of spleen tissues were determined at necropsy, 72 hours post-infection and expressed as the log of the colony count (e.g., 100000 CFU=log 5) per gram of tissue. Colony count measurements provide an indication of the extent of phagocytosis of bacteria by splenic neutrophils and macrophages.

A further series has as its system human neutrophils. Put plainly: Neutrophil chemotaxis, Transwell assay. It is filed as cell-based. The following applies: no inhibitor, read-out: concentration of chemoattractant necessary to support half-maximal migration. As for the experimental part: It is known that distinct signal transduction pathways are utilized by host-derived versus bacteria-produced chemoattractants [Heit, J. Cell Biol., 159:91-102 (2002)]. To determine whether specific chemotactic agents preferentially rely on PI3Kδ in order to promote directed cell migration, the effect of inhibiting PI3Kδ on the ability of neutrophils to undergo chemotaxis was examined using a Transwell™ assay system.
Neutrophil chemotaxis experiments were conducted as described [Roth et al., J. Immunol. Methods, 188:97-116 (1995)]. Briefly, purified human neutrophils were incubated with DMSO (0.3% v/v) or an inhibitor in accordance with the invention reconstituted in DMSO (0.3%) for 20 minutes at room temperature. Cells were added to bare filter inserts (Transwell™ 5 μm pore size; Corning Costar, Cambridge, Mass.), that were placed into wells containing chemoattractants or control medium of a Ultra low 24-well cluster plate, and incubated for 1 hour at 37° C. in a 5% CO2 humidified environment. The number of neutrophils that migrated into the bottom well was determined by FACScan (Becton Dickinson, San Jose, Calif.). Results were expressed as percent neutrophil migration relative to the control (medium without inhibitor).
Dose response curves were generated to determine the concentrations of each chemoattractant, both host and bacterial-derived, necessary to support half-maximal migration. […] Methods, 137:37-46 (1991)].

Series [1] relates to neutrophils. Put plainly: Superoxide production by activated neutrophils (WST-1). The conditions noted are these: no inhibitor; read-out: agonist concentration representing half-maximal production of superoxide anions. It is filed as cell-based.
Series [2] deals with neutrophils. Put plainly: Neutrophil elastase release (exocytosis) assay. It is filed as cell-based. The following applies: no inhibitor; read-out: agonist concentration representing half-maximal release of elastase.
Procedure: Microtiter assays for the detection of elastase released from purified neutrophils (1.1×10^5 per well in PBS) were performed in the absence or presence of an inhibitor in accordance with the invention or LY294002 on fibrinogen-coated plates [Mulligan, et al., Proc. Natl. Acad. Sci. U.S.A., 90:11523-11527 (1993)]. […] The samples were centrifuged and 90 μl of the supernatant was transferred to another plate containing 10 μl of methoxysuccinyl-alanylalanylprolylvalyl-p-nitroanilide (10 mM, Sigma). Absorbance at 410 nm was measured at one hour as described above. Results are expressed as the percentage elastase activity relative to the control (medium without inhibitor).

On to `C[C@@H]1C[C@H]2[C@@H]3CCC4=CC(=O)C=C[C@]4(C)[C@@]3(F)[C@@H](O)C[C@]2(C)[C@@]1(O)C(=O)CO` [dexamethasone], for which the “Log colony count/gm spleen tissue in dexamethasone group (2 mg/kg)” value in the series with Listeria monocytogenes (Clearance Experiment 1, 2 mg/kg BID PO) is recorded as “count, >5 log colony count/gm spleen tis”; with Listeria monocytogenes (Clearance Experiment 2, 2 mg/kg), “hours, >10 log colony count/gm spleen tis”. For the same molecule, the “lethality / condition of animals at 72 hours” value in the series with Listeria monocytogenes (second experiment, dexamethasone 2 mg/kg) is listed as “lethality was observed; also recorded: Moribund at 72”.
`CCCCC/C=C\C[C@@H](O)/C=C/C=C/C=C\[C@@H](O)CCCC(=O)O` [LTB4, leukotriene B4]: the figures for the EC50 in the series on human neutrophils, in the series with neutrophils [1] and in the series with neutrophils [2] were 0.25 nM, 2 nM and 2 nM, respectively.
As to interleukin 8 [IL-8], the EC50 in the series on human neutrophils is 0.35 nM.

B1: complement factor C5a (protein, UniProt P01031 678-751, looked up)
C5a anaphylatoxin: TLQKKIEEIAAKYKHSVVKKCCYDGACVNNDETCEQRAARISLGPRCIKAFTECCVVASQLRANISHKDMQLGR
modifications: C5a anaphylatoxin
notes: host-derived chemoattractant
For B1, in the series on human neutrophils, the EC50 came to 0.37 nM.
